Entries after “also recorded” stand apart in the source; their conditions may differ.
Assays:
Lin^− bone marrow cells [1] = test: erythropoietic growth of Lin− bone marrow quantified by flow cytometry (Ter-119/CD71) and total cell counts; type: cell-based, mouse; conditions: for Avg Growth +/− SD: Ter-119+ CD71−, SCF 0, 72 h
Experimental: FIG. 13 is a bar graph of data obtained from experiments performed to determined the effect of Epo on the erythropoietic growth of Lin− bone marrow cells. Lin^− bone marrow cells were cultured for 1 day in media containing serum along with Epo at variable concentrations. Epo was removed from the culture media at the end of 1 day, and culture was continued for 2 more days in media with serum. At the end of the third day, the resulting populations were removed from culture and erythropoietic growth was quantified as the product of total cell counts and flow cytometric region fractions. Specifically, erythroid-specific growth at two late stages was calculated for each culture by taking the product of the total cell count and the fraction of the population found to have the indicated surface phenotype (determined by flow cytometry). These erythroid growth values were then normalized to the number of Lin^− cells seeded.
Studies were conducted by stimulating Lin^− mouse BM with specifically defined media formulations for 24 hours before replacing the medium to a minimal erythroid-differentiation medium (EDM) and culturing for an additional 2-3 days. This EDM contains 20% FBS, 2 mM L-glutamine, and 0.1 mM β-mercaptoethanol in IMDM, whereas the “Day 1” medium consists of IMDM with 15% FBS, 2 mM L-glutamine, 0.1 mM β-mercaptoethanol, 1% BSA, 200 μg holo-transferrin, 10 μg/mL insulin as well as further supplements (some specific media formulations listed in Table I). Upon harvest, the number of late-stage erythroid cells and enucleated erythrocytes produced over the culture period was analyzed. […] Although the most relevant endpoint for these cultures is PCEs-produced per primary BM cell, the number of R4 and R5 cells in the post-culture population, as measured by flow ctyometry, provided a reasonable metric of PCE content for early screening studies. More rigorous quantification, via histological analysis, was then employed in a more detailed analysis to generate FIGS. 11, 12, 14 and 16.
As shown above, short-term erythropoietic culture can be used to detect genotoxic exposure. Quantitative studies on the erythropoietic growth of Lin^− BM after stimulus with physiologic erythropoietic factors were used to further improve the culture methodology and thus increase the potential throughput of the in vitro erythroid MN assay described here. Initially, flow cytometry was used to define late-erythroid cells by subdividing the Ter-119^+ population based on CD71 expression (regions shown in FIG. 4) to estimate the fraction of a culture that acquired late-erythroid surface markers. The products of flow cytometric region statistics and total cell counts were calculated and then normalized to input cell numbers to quantify erythropoietic growth in a culture.
Table II. in vitro erythroid growth is modulated by physiologic erythropoietic stimuli. The culture conditions listed on the left-hand side of the table specify the environment in which a growth measurement was made. All soluble growth factors used in these experiments were removed from culture after 1 day. An X in this first section of the table indicates the variable parameter found to have a significant erythropoietic growth-effect. The measured effect of that parameter on erythropoietic growth is then given on the right-hand side of the table. In this right-hand section of the table, the first item listed is the defining surface phenotype of the erythropoietic population. […] Finally, the level of significance (P value) is given. Note that the first 4 entries to this table were taken from FIG. 13; other entries were obtained from similar figures. P values were determined by the two-tailed t test, except for the 3 italicized P values, which were determined using the one-tailed t test.

Lin^− bone marrow cells [2] = test: PCE growth of Lin− bone marrow by acridine orange histology, fractional-factorial design with regression; type: cell-based, mouse
Experimental: (FIG. 14A) Lin^− bone marrow cells were cultured for 1 day in media containing serum and various combinations of soluble growth factors as listed on the abscissa; these specific 6-factor combinations constitute an orthogonal fractional-factorial design (also represented in Table 1). After 1 day, all soluble erythropoietic growth factors were removed and the cells were cultured for either 2 or 3 additional days in medium with serum. At harvest, the cells were removed from culture and late erythropoietic growth was quantified. For each culture, PCE numbers were calculated by taking the product of the total cell count and the PCE fraction of the population as determined by differential cell counting after staining with acridine orange (>2000 cells scored per culture). Growth calculations were normalized to input cell numbers and are presented as the mean of 3 independent cultures +/− the standard deviation. (FIG. 14B) Culture methods that yielded similar populations at harvest were grouped into subsets (α, β, γ, and δ); growth characteristics for these subsets were quantified and representative micrographs were acquired. […] Cultures exposed to SCF but not Epo (subset γ) expanded approximately 2.5-fold in total cell numbers, but again contained less than 3% PCEs. Cultures exposed to both Epo and SCF (subset β) expanded approximately 13-fold in total cell numbers and yielded populations in which approximately 31% of all cells are PCEs. Finally, cultures exposed to both Epo and Dex but not SCF (subset δ) expanded approximately 4-fold while producing populations in which approximately 51% of all cells are PCEs. Growth calculations are presented as the mean of all cultures in a subset ± the standard deviation. Scale bars: 20 μm.
Table I is an experimental design chart that provides the specific details of the experimental conditions that were examined to generate FIGS. 11, 12, 14 and 16. Specifically, this experimental design is a two-level, minimum-aberration, fractional-factorial design of resolution IV (a 2IV^6-2 minimum-aberration design). The full-factorial design was not performed because an experiment of this size (2^6 cultures for each biological singlet) was logisitically infeasible. This experiment was designed in order to estimate all the main (primary) interactions between the culture response (PCEs produced) and the individual parameters included in the design. In addition, many of the secondary interactions (between the culture response and various parameter-pairs) were estimable by conducting this design (see FIGS. 12 and 16), although some of these secondary interactions were confounded with other secondary interactions. Each condition listed in the design table was tested in biological triplicate, and each triplicate set was cultured under three different atmospheric conditions, to yield a total of nine culture wells per listed condition.
Furthermore, some variability between various Lin^− BM isolations was observed over the course of preliminary flow cytometric studies. Therefore, a definitive study was conducted that used aliquots of a large, well-mixed Lin^− population that was isolated from the combined BM of 15 mice. In this study, flow cytometry was replaced by histological analysis to provide more rigorous quantification of a population's PCE content. This study was designed to estimate the relative stimulatory effect of various, previously-identified erythroid growth factors on culture performance. Specifically a minimum-aberration, fractional-factorial experimental design (a 2IV^6-2 minimum-aberration design) was conducted to estimate all the main (primary) interactions between the culture response, which was PCEs produced (as assessed by histology), and the individual parameters included in the design (see Table I, and FIGS. 11, 12, 14 and 16). […]

[3] = complete multi-linear regression model (n3=27), parameters scaled 0 to 1
[4] = reduced multi-linear regression model (n3=17), FIG. 16

| Substance | Avg Growth +/− SD (Lin^− bone marrow cells [1]; [Epo] = 2 U/mL (low-growth comparison), 5% CO2, 20% O2, Fn 2, Dex 0, Ins 10, IGF-I 0) | Avg Growth +/− SD (Lin^− bone marrow cells [1]; [Epo] = 5 U/mL, 5% CO2, 20% O2, Fn 2 μg/sq cm, Dex 0, Ins 10 μg/mL, IGF-I 0) | Avg Growth +/− SD (Lin^− bone marrow cells [1]; [Epo] = 10 U/mL, 5% CO2, 20% O2, Fn 2, Dex 0, Ins 10, IGF-I 0) | Avg Growth +/− SD (Lin^− bone marrow cells [1]; [Epo] = 50 U/mL, 5% CO2, 20% O2, Fn 2, Dex 0, Ins 10, IGF-I 0) | Avg Growth +/− SD (Lin^− bone marrow cells [1]; [Epo] = 500 U/mL, 5% CO2, 20% O2, Fn 2, Dex 0, Ins 10, IGF-I 0) | level at which the erythropoietic stimulatory effect reached a maximum (Lin^− bone marrow cells [1]; cultured Lin− BM, Epo present for first day) | relative size of growth effects by multi-linear regression, in words (Lin^− bone marrow cells [2]; FIG. 16) | Scaled Estimate (model parameter, PCE growth) (Lin^− bone marrow cells [2]; [3]) | effect on PCE production / erythropoietic growth, statistical analysis of FIG. 12 (Lin^− bone marrow cells [2]; primary and secondary effects, untreated cultures) | Scaled Estimate (model parameter, PCE growth) (Lin^− bone marrow cells [2]; [4]) | effect on erythropoietic growth (erythropoietic flow cytometry), in words (Lin^− bone marrow cells [1]; preliminary flow cytometric studies, Lin− BM from C57BL/6J mice) |
| --- | --- | --- | --- | --- | --- | --- | --- | --- | --- | --- | --- |
| Epo: erythropoietin (Amgen), essential component of the erythropoietic media formulation | 0.141 +/− 0.019 per Lin^− cell seeded | 0.307 +/− 0.022 per Lin^− cell seeded | 0.380 +/− 0.050 per Lin^− cell seeded | 0.312 +/− 0.030 per Lin^− cell seeded | 0.314 +/− 0.019 per Lin^− cell seeded | approximately 10 U/mL | largest eyrthropoietic growth effect | 3.136 | major factors influencing erythropoietic growth; also recorded: the largest, and most statistically-significant, effect | 3.130 | – |
| IGF-I: Insulin-like Growth Factor I (R&D systems) | – | – | – | – | – | – | – | −0.231 | – | −0.200 | had an effect on erythroid cell numbers |
